According to ChEMBL document CHEMBL4177734, “Cytotoxic quinazoline alkaloids from the seeds of Peganum harmala” (Bioorg Med Chem Lett, 2018):

Columns and labels:
Assay type in all cases: functional, cell-based; call rule not given here
SGC-7901 = experiment: Cytotoxicity against human SGC7901 cells assessed as reduction in cell viability by MTT assay
PC-3 = experiment: Cytotoxicity against human PC3 cells assessed as reduction in cell viability by MTT assay
HL-60 = experiment: Cytotoxicity against human HL60 cells assessed as reduction in cell viability by trypan blue method
[1] = Cytotoxicity against Med-merk carcinoma cells (unknown origin)
[2] = Cytotoxicity against mouse Sp2/0-Ag14 cells
[3] = Homo sapiens, PC-3, read-out: IC50
[4] = Homo sapiens, HL-60, read-out: IC50

Structure (SMILES)	IC50 (SGC-7901)	IC50 (PC-3; [3]) [µM]	IC50 (HL-60; hl-60)	IC50 (PC-3; pc-3)	IC50 (HL-60; [4]) [µM]	IC50 [1] [µM]	IC50 [2] [µM]
O[C@@H]1CCN2Cc3ccccc3N=C12	Not Active	15.4	Not Active	–	–	–	–
O=c1c2ccccc2nc2n1CC[C@@H]2O	Not Active	–	–	Not Active	67.8	–	–
COC(=O)CCn1cnc2ccccc2c1=O	Not Active	–	Not Active	Not Active	–	–	–
O=c1c2cc(O)ccc2nc2n1CC[C@H]2O	Not Active	–	Not Active	Not Active	–	–	–
O=c1c2cc(O)ccc2nc2n1CC[C@@H]2O	Not Active	–	Not Active	Not Active	–	–	–
O=c1c2ccccc2nc2n1CC[C@@H]2O[C@@H]1O[C@H](CO[C@@H]2O[C@H](CO)[C@@H](O)[C@H](O)[C@H]2O)[C@@H](O)[C@H](O)[C@H]1O	Not Active	–	Not Active	Not Active	–	–	–
O=c1c2ccccc2nc2n1CC[C@@H]2O[C@@H]1O[C@H](CO)[C@@H](O)[C@H](O)[C@H]1O	Not Active	–	Not Active	Not Active	–	–	–
Nc1ccccc1CN1CC[C@@H](O[C@@H]2O[C@H](CO[C@@H]3O[C@H](CO)[C@@H](O)[C@H](O)[C@H]3O)[C@@H](O)[C@H](O)[C@H]2O)C1=O	Not Active	–	Not Active	Not Active	–	–	–
O=c1[nH]c(CCCO)nc2ccccc12	Not Active	–	Not Active	Not Active	–	–	–
O=c1c2ccccc2nc2n1CC[C@H]2O[C@@H]1O[C@H](CO[C@@H]2O[C@H](CO)[C@@H](O)[C@H](O)[C@H]2O)[C@@H](O)[C@H](O)[C@H]1O	Not Active	–	Not Active	Not Active	–	–	–
Nc1ccccc1CN1CC[C@H](O[C@@H]2O[C@H](CO[C@@H]3O[C@H](CO)[C@@H](O)[C@H](O)[C@H]3O)[C@@H](O)[C@H](O)[C@H]2O)C1=O	Not Active	–	–	Not Active	42.8	–	–
Nc1ccccc1CN1CC[C@@H](O)C1=O	Not Active	–	–	Not Active	42.3	–	–
Nc1ccccc1CN1CC[C@H](O)C1=O	Not Active	–	–	Not Active	42.3	–	–
O=c1c2ccccc2nc2n1CC[C@H]2O	Not Active	–	–	Not Active	67.8	–	–
O=c1c2ccccc2nc2n1CCC2O (racemic)	–	–	–	–	–	25.3	19.2
O=c1c2ccccc2nc2n1CCC2 [DEOXYVASICINONE]	Not Active	–	Not Active	Not Active	–	–	–
O=c1[nH]cnc2ccccc12 [QUINAZOLINONE]	Not Active	–	Not Active	Not Active	–	–	–
O[C@H]1CCN2Cc3ccccc3N=C12 [VASICINE]	Not Active	15.4	Not Active	–	–	–	–
